# Target: T1, human zDHHC2 (Homo sapiens, UniProt Q9UIJ5)
# T1 construct: expressed in transfected cells; host or cells: HEK293T
# T1 sequence (Q9UIJ5 1-367): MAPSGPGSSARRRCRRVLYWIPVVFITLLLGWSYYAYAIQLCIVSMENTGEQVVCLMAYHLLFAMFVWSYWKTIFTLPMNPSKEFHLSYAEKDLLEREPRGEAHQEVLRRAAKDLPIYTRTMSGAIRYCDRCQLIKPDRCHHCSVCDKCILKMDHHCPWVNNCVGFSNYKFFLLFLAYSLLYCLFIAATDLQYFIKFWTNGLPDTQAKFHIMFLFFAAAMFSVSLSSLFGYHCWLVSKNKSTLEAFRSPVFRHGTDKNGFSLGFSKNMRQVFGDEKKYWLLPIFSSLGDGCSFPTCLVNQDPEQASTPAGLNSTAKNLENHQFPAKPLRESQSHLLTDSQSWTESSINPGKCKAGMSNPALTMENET
# Assay: PSD95-mCHERRY S-acylation in HEK293T cells co-expressing zDHHC2
# Type: cell-based
# Conditions: 25 μM
# From the text: PSD95 (postsynaptic density protein 95) is a major S-acylated protein that has a critical role in the maturation of excitatory neurons and in synaptic plasticity ([46], [47]). PSD95 can be S-acylated by zDHHC2, zDHHC3, zDHHC7, and zDHHC15 ([6]). […] We therefore tested the effects of TTZ-1 and TTZ-2 on the S-acylation of PSD95 mediated by zDHHC2, zDHHC3, zDHHC7, and zDHHC15. […] In contrast, zDHHC3 and zDHHC7 activities toward PSD95 were unaffected by TTZ-1 and TTZ-2, mirroring the data obtained with GFP-SNAP25 as a substrate.
# Figure 9 Activity of TTZ-1 and TTZ-2 against PSD95 S-acylation mediated by human zDHHC2, zDHHC3, zDHHC7, and zDHHC15 expressed in mammalian cells. HEK293T cells were transfected with a plasmid encoding PSD95-mCHERRY together with either a control plasmid pEF-BOS-HA (pEF) or a plasmid encoding either HA-tagged human zDHHC2 (zD2), zDHHC3 (zD3), zDHHC7 (zD7), or zDHHC15 (zD15) for 24 h. Cells were then preincubated for 4 h with TTZ-1 or TTZ-2 (25 μM final) or DMSO control before metabolic labeling with 100 μM C16:0-azide for 4 h. Cells were lysed, and proteins having incorporated C16:0-azide were labeled by click chemistry with an alkyne-IR800 dye. […] The data were quantified, and the graphs below each set of membranes show mean ± SEM of normalized S-acylation of PSD95-mCHERRY (click signal/RFP signal). […]
row,Compound,PSD95-mCHERRY S-acylation by zDHHC2
1,"CCCCCCCOc1ccc(C(=O)Nc2cccc3c2OC(c2nnn[nH]2)CN3)cc1 (centres unmarked) [TTZ-1, N-(2-(1H-Tetrazol-5-yl)-3,4-dihydro-2H-benzo[b][1,4]oxazin-8-yl)-4-(heptyloxy)benzamide]",significantly inhibited
2,"O=C(Nc1cccc2c1OC(c1nnn[nH]1)CN2)c1ccc(OCCCCc2ccccc2)cc1 (centres unmarked) [TTZ-2, N-(2-(1H-Tetrazol-5-yl)-3,4-dihydro-2H-benzo[b][1,4]oxazin-8-yl)-4-(4-phenylbutoxy)benzamide]",significantly inhibited

# From paper PMC9558053, “Development of a novel high-throughput screen for the identification of new inhibitors of protein S-acylation” (The Journal of Biological Chemistry, 2022)
